{
  "source": "patent US20210069157A1",
  "about": "“AGENT FOR TREATMENT OF PBC” (Kowa Company, Ltd, priority 2016, published 2021)",
  "key": {"[1]": {"system": "patients with dyslipidemia showing a high level of triglyceride (TG)", "test": "Pooled clinical trial data (8 tests, 12 weeks or more): effects on ALP and total bilirubin", "type": "in vivo, human", "set-up": "ALP level, Rate of change (LSmean) / total bilirubin level, Rate of change (LSmean): unit not given here", "details": "for ALP level, Rate of change (LSmean) / total bilirubin level, Rate of change (LSmean): 12 weeks vs baseline; for ALP level, Rate of change (LSmean): placebo 0.5; for total bilirubin level, Rate of change (LSmean): placebo 6.1", "description": "Compound. A was administered at a dose of 0.05 to 0.4 mg per day to Compound A group. […] Note that comparisons between the groups were investigated by using covariance analysis with baseline levels used as covariates."}, "[2]": {"system": "patients with dyslipidemia showing a high level of TG being treated with ursodeoxycholic acid", "test": "Pooled clinical trial data, subset being treated with ursodeoxycholic acid: effects on ALP and total bilirubin", "type": "in vivo, human", "description": "Data of patients being treated with ursodeoxycholic acid (15 cases in total) were extracted from the data obtained in a clinical trial (8 tests with an administration period of 12 weeks or more) of Compound A, which had been performed for patients with dyslipidemia showing a high level of TG, the effects of Compound A for the ALP and the total bilirubin were investigated. Compound A was administered at a dose of 0.05 to 0.4 mg per day to Compound A group. Further, placebo was administered to a control group. Each compound was administered to Compound A group and a control group for 12 weeks, and changes in the levels of ALP before and after the administration are shown in Table 3 and FIG. 3, and changes in the levels of total bilirubin before and after the administration are shown in Table 4 and FIG. 4. Note that comparisons between the groups were investigated by using covariance analysis with baseline levels used as covariates."}, "[3]": {"details": "0.05 to 0.4 mg per day, 12 weeks"}, "[4]": {"details": "patients being treated with ursodeoxycholic acid, 12 weeks"}},
  "data": [
    {"smiles": "CC[C@@H](Oc1cccc(CN(CCCOc2ccc(OC)cc2)c2nc3ccccc3o2)c1)C(=O)O", "note": "[Compound A, (R)-2-[3-[[N-(benzoxazol-2-yl)-N-3-(4-methoxyphenoxy)propyl]aminomethyl]phenoxy] butyric acid]", "values": [
      {"measurement": "effect on level of ALP as compared with placebo", "setting": "[1]; [3]", "result": "decreases dose-dependently"},
      {"measurement": "effect on level of total bilirubin as compared with placebo", "setting": "[1]; [3]", "result": "decreases dose-dependently"},
      {"measurement": "ALP level, Rate of change (LSmean)", "setting": "[1]; Compound A 0.05 mg/day", "result": "−13.4"},
      {"measurement": "total bilirubin level, Rate of change (LSmean)", "setting": "[1]; Compound A 0.05 mg/day", "result": "−16.4"},
      {"measurement": "total bilirubin level, 12 Weeks", "setting": "[1]; Compound A 0.05 mg/day, 12 weeks, n 37, baseline 0.8", "result": 0.6, "unit": "mg/dL"},
      {"measurement": "ALP level, 12 Weeks", "setting": "[1]; Compound A 0.05 mg/day, 12 weeks, n 37, baseline 234.4", "result": 201.5, "unit": "IU/L"},
      {"measurement": "ALP level, Rate of change (LSmean)", "setting": "[1]; Compound A 0.1 mg/day", "result": "−22.1"},
      {"measurement": "total bilirubin level, Rate of change (LSmean)", "setting": "[1]; Compound A 0.1 mg/day", "result": "−7.7"},
      {"measurement": "total bilirubin level, 12 Weeks", "setting": "[1]; Compound A 0.1 mg/day, 12 weeks, n 127, baseline 0.8", "result": 0.7, "unit": "mg/dL"},
      {"measurement": "ALP level, 12 Weeks", "setting": "[1]; Compound A 0.1 mg/day, 12 weeks, n 127, baseline 228.4", "result": 177.4, "unit": "IU/L"},
      {"measurement": "ALP level, Rate of change (LSmean)", "setting": "[1]; Compound A 0.2 mg/day", "result": "−29.4"},
      {"measurement": "total bilirubin level, Rate of change (LSmean)", "setting": "[1]; Compound A 0.2 mg/day", "result": "−11.9"},
      {"measurement": "total bilirubin level, 12 Weeks", "setting": "[1]; Compound A 0.2 mg/day, 12 weeks, n 846, baseline 0.8", "result": 0.7, "unit": "mg/dL"},
      {"measurement": "ALP level, 12 Weeks", "setting": "[1]; Compound A 0.2 mg/day, 12 weeks, n 846, baseline 235.6", "result": 164.7, "unit": "IU/L"},
      {"measurement": "ALP level, Rate of change (LSmean)", "setting": "[1]; Compound A 0.4 mg/day", "result": "−35.3"},
      {"measurement": "total bilirubin level, Rate of change (LSmean)", "setting": "[1]; Compound A 0.4 mg/day", "result": "−10.4"},
      {"measurement": "total bilirubin level, 12 Weeks", "setting": "[1]; Compound A 0.4 mg/day, 12 weeks, n 319, baseline 0.8", "result": 0.6, "unit": "mg/dL"},
      {"measurement": "ALP level, 12 Weeks", "setting": "[1]; Compound A 0.4 mg/day, 12 weeks, n 319, baseline 225.1", "result": 145.0, "unit": "IU/L"},
      {"measurement": "effect on level of ALP compared with fenofibrate 200 mg per day", "setting": "[1]; Compound A at a dose of 0.1 mg or more, 12 weeks", "result": "decreases the level of ALP more strongly than the fenofibrate at the maximum clinical dose"},
      {"measurement": "total bilirubin level, Rate of change (LSmean)", "setting": "[2]; Compound A 0.05 to 0.4 mg per day, 12 weeks vs baseline, patients on UDCA, placebo 41.2", "result": "−18.5"},
      {"measurement": "ALP level, Rate of change (LSmean)", "setting": "[2]; Compound A 0.05 to 0.4 mg per day, 12 weeks vs baseline, patients on UDCA, placebo −1.1", "result": "−22.6"},
      {"measurement": "total bilirubin level, 12 Weeks", "setting": "[2]; Compound A 0.05 to 0.4 mg per day, 12 weeks, patients on UDCA, n 13, baseline 0.7", "result": 0.6, "unit": "mg/dL"},
      {"measurement": "ALP level, 12 Weeks", "setting": "[2]; Compound A 0.05 to 0.4 mg per day, 12 weeks, patients on UDCA, n 13, baseline 295.5", "result": 229.5, "unit": "IU/L"},
      {"measurement": "effect on level of ALP", "setting": "[2]; [4]", "result": "decreases"},
      {"measurement": "effect on level of total bilirubin", "setting": "[2]; [4]", "result": "decreases"}
    ]}
  ]
}
